In the Deep4Chem optical property database:

Experiment: solvent given as SMILES

For COc1ccc2cc3c(C)cc(=O)oc3cc2c1, the emission maximum (in CC#N) was 453 nm, the emission maximum (in CCO) was 464 nm and the emission maximum (in CCOC(C)=O) was 435 nm. For the same molecule, the emission maximum (in CO) was 469 nm, the emission maximum (in ClC(Cl)Cl) was 443 nm and the emission maximum (in OCC(F)(F)F) was 496 nm.

For CC1(C)C(/C=C/C2=C(Cl)C(=C/C=C3/N(Cc4ccc(C(=O)O)cc4)c4ccccc4C3(C)C)/CCC2)=[N+](Cc2ccc(C(=O)O)cc2)c2ccccc21, the emission maximum (in CO) was 814 nm.

With CCCCC(CC)COc1ccc2nc(-c3ccc(-c4ccc(OC)cc4)s3)sc2c1 (stereo unspecified) the emission maximum (in ClCCl) was 434 nm.

In the case of Oc1ccc(C2=[N+]3C(=C(c4ccccc4)c4cccn4[B-]3(F)F)C=C2)cc1, the emission maximum (in ClC(Cl)Cl) is reported as 564 nm.

Work on CC[N+]1(CC)CN2C(=N1)C(C(=O)O)=Cc1cc(Cl)ccc12 yielded an emission maximum (in O) of 472 nm.

CC(C)(C)[Si](C)(C)c1ccc([Si](C)(C)C(C)(C)C)c2ccccc12 showed an emission maximum (in C1CCCCC1) of 335 nm.

In the case of Cc1n[nH]c2c1C(c1ccc([N+](=O)[O-])cc1)C(C#N)=C(N)O2 (stereo unspecified), the emission maximum (in C1CCOC1) is reported as 393 nm, the emission maximum (in C1COCCO1) is reported as 390 nm and the emission maximum (in CC#N) is reported as 407 nm. For the same molecule, the emission maximum (in CCCCO) was 410 nm, the emission maximum (in CCCO) was 411 nm and the emission maximum (in CCO) was 414 nm. It also gave an emission maximum (in CCOC(C)=O) of 396 nm, an emission maximum (in CN(C)C=O) of 405 nm and an emission maximum (in CO) of 417 nm. For the same molecule, the emission maximum (in CS(C)=O) was 404 nm, the emission maximum (in Cc1ccccc1) was 387 nm and the emission maximum (in ClCCl) was 402 nm.

c1cc2c3c(cccc3c1)-c1c-2c2ccccc2c2ccccc12 gave an emission maximum (in CCCCCCC) of 536 nm.

c1ccc(-c2nnc(-c3ccc(-n4c5ccccc5c5ccccc54)cc3)o2)cc1 showed an emission maximum (in CCO) of 440 nm and an emission maximum (in Cc1ccccc1) of 387 nm.

Work on CN(C)c1ccc(C2=C3C=C(c4ccc(C=O)cc4)S[C@]34c3ccccc3[C@H]2c2ccccc24)cc1 yielded an emission maximum (in ClCCl) of 645 nm.

For Oc1ccccc1/C=N/CC/N=C/c1ccccc1O, the emission maximum (in CC#N) was 461 nm.

Work on CCCCN(CCCC)c1ccc(C#Cc2cc(C#Cc3ccc(N(CCCC)CCCC)cc3)c(C#Cc3ccc(C(F)(F)F)cc3)cc2C#Cc2ccc(C(F)(F)F)cc2)cc1 yielded an emission maximum (in ClCCl) of 541 nm and an emission maximum (in c1ccccc1) of 493 nm.

CC[n+]1nc2cc3c4c(c2c2cc(C)ccc21)CCCN4CCC3 showed an emission maximum (in O) of 571 nm.

Work on Cc1cn2cc(-c3ccccc3)[n-][n+]2c1 yielded an emission maximum (in ClCCl) of 422 nm.

C[N+]1=C(/C=C/C=C2/N(CCC[N+](C)(C)C)c3ccccc3C2(C)C)C(C)(C)c2ccccc21 showed an emission maximum (in CS(C)=O) of 565 nm.

In the case of CCCCN(c1ccccc1)c1ccc2c(c1)C(CC)(CC)c1cc(/C=C/c3ccc(/C=C(\C#N)C(=O)O)s3)ccc1-2, the emission maximum (in C1CCOC1) is reported as 622 nm, the emission maximum (in C1COCCO1) is reported as 621 nm and the emission maximum (in CC#N) is reported as 518 nm. For the same molecule, the emission maximum (in CC(C)=O) was 576 nm, the emission maximum (in CCOC(C)=O) was 590 nm and the emission maximum (in CN(C)C=O) was 605 nm. It also gave an emission maximum (in CS(C)=O) of 520 nm and an emission maximum (in ClCCl) of 595 nm.

In the case of COc1cc(OC)cc(C2=C(c3cc(OC)c(OC)c(OC)c3)C3=Nc4c(-c5cc(OC)c(OC)c(OC)c5)c(-c5cc(OC)cc(OC)c5)c(-c5ccc(C(C)(C)C)cc5)n4[B-](F)(F)[N+]3=C2c2ccc(C(C)(C)C)cc2)c1, the emission maximum (in Cc1ccccc1) is reported as 721 nm.

Molecule c1ccc(C2=C(c3ccccc3)c3cccc4c5c(cc(c34)O2)=NC2CCCCC2N=5)cc1 (stereo unspecified) has an emission maximum (in ClCCl) of 545 nm.

In the case of C(=C\c1ccncn1)/c1ccc(N(c2ccccc2)c2ccc(/C=C/c3ccncn3)cc2)cc1, the emission maximum (in ClCCl) is reported as 555 nm.

COc1cc2c3c4c(c5ccc(C(C)(C)C)cc5c5c(OC)c(OC)c(OC)c(c2c(OC)c1OC)c45)=[N+]1C3=Nc2c3c4cc(OC)c(OC)c(OC)c4c4c(OC)c(OC)c(OC)c5c6cc(C(C)(C)C)ccc6c(c3c54)n2[B-]1(F)F showed an emission maximum (in Cc1ccccc1) of 873 nm.

For O=c1c2cc(C#Cc3ccc(Cl)cc3)ccc2nc2ccc(C#Cc3ccc(Cl)cc3)cn12, the emission maximum (in ClCCl) was 478 nm.

In the case of CCOC(=O)CN(CC(=O)OCC)c1ccc(-c2cc(-c3ccncc3)nc(-c3ccncc3)c2)cc1, the emission maximum (in CC#N) is reported as 482 nm, the emission maximum (in CCOC(C)=O) is reported as 438 nm and the emission maximum (in CN(C)C=O) is reported as 490 nm. The emission maximum (in CS(C)=O) was 496 nm and the emission maximum (in c1ccccc1) was 412 nm.
